Earlier results in PMC5278571, “Optimal doses of caspofungin during continuous venovenous hemodiafiltration in critically ill patients” (Critical Care, 2017).
Converted amounts (≈) assume the structure as drawn.

How the values were obtained:
Candida = settings: MIC taken for the PK/PD target calculation; cited from earlier work
Description: (§1) Taking into account a MIC of 0.1 mg/L [4], and using the target pharmacokinetics/pharmacodynamics (PK/PD) described for micafungin, we would have reac ...

[1] = tested on: Candida and Aspergillus spp., including Candida parapsilosis; settings: published MIC90s; cited from earlier work
Description: as §1

Structure (SMILES): CC[C@H](C)C[C@H](C)CCCCCCCCC(=O)N[C@H]1C[C@@H](O)[C@@H](NCCN)NC(=O)[C@@H]2[C@@H](O)CCN2C(=O)[C@H]([C@H](O)CCN)NC(=O)[C@H]([C@H](O)[C@@H](O)c2ccc(O)cc2)NC(=O)[C@@H]2C[C@@H](O)CN2C(=O)[C@H]([C@@H](C)O)NC1=O [caspofungin]
- MIC (Candida): 0.1 µg/mL (≈ 0.0915 µM)
- MIC90 [1]: 2 µg/mL (≈ 1.83 µM)
